Columns and labels:
Gram-negative bacteria = settings: paradigm; cited from earlier work
E. coli BAA-2452 = assay: H33342 bisbenzimide dye uptake assay, E. coli BAA-2452; assay type: cell-based, Escherichia coli; settings: E. coli BAA-2452, 7×10^8 CFU/mL, non-lethal concentration
Description: Overnight culture of E. coli BAA-2452™ and K. pneumoniae BAA-2146™ were used to inoculate fresh CAMHB media for another 5 hr at 35° C. with shaking. Bacterial cells were collected by centrifugation at 6000 rpm for 40 min and resuspended in PBS. The OD600 of the cell suspension was adjusted to about 1.0 and kept at room temperature during the experiment. Aliquots (180 μL/well) of the cell suspension were transferred to a 96-well flat-bottom black plate in the format of column 1, PBS blank; column 2, untreated control cells; column 3, cells+potentiator (sub-lethal concentration). Five technical replicates of each group were conducted. Fluorescent probe Hoechst 33342 bisbenzimide (H33342) was added (20 μL) to each well with a final concentration of 5 μM. Fluorescence was read immediately after the addition of H33342 by a Tecan Infinite M20 plate reader with the excitation and emission filters of 355 and 460 nm for H33342. Fluorescence data were normalized to the emission before cells were added in the PBS control, and they were plotted against time to show the cellular uptake of H33342 over 10 min. Control experiments of dye+600-Da BPEI were unchanged from fluorescence emission values obtained with dye only.

Gram-positive bacteria = settings: paradigm; cited from earlier work
MRSA OU11 = assay: Resazurin cell viability assay, MRSA OU11; assay type: cell-based, Staphylococcus aureus
Description: Cell viability assays with resazurin were performed with MRSA OU11 cells grown in TSB as similar to the procedure of cell-permeation assays until they reach a density of ˜7×10^9 CFU/mL. Then the cell culture was transferred into a 96-well plate (100 μL/well) for BPEI or polymyxin B (PmB) treatments at varied concentrations from 64-512 μg/mL. Controls of untreated and positive control of 5% bleach were also conducted. The plate was incubated at 37° C. overnight. Resazurin (50 μL; final concentration of 50 μg/mL) was then added and, after 1 hour of incubation, the fluorescence intensity was measured (λex=560 nm; λen, =590 nm).

## polymyxin B
Gram-negative bacteria
  MIC: ≤ 2 µg/mL
E. coli BAA-2452
  intracellular accumulation of H33342 (fluorescence) vs untreated cells: increases
Gram-positive bacteria
  concentration required (MIC): ≥ 32 µg/mL
MRSA OU11; MRSA OU11, 64 μg/mL PmB
  cell viability (resazurin): greater cell death than 512 μg/mL 600-Da BPEI
MRSA OU11; MRSA OU11, 512 μg/mL PmB
  cell viability (resazurin): complete loss of MRSA OU11 viability
MRSA OU11; MRSA OU11, ~7×10^9 CFU/mL, 64-512 μg/mL, overnight
  cell viability (resazurin): more lethal
